Consider 28 compounds from the supplement of paper PMC11061612.

Experiment [1] relates to U-698-M. Put plainly: Bliss excess, mean over the matrix (fraction); higher = more synergy. The following applies: U-[…], B-Cell Non-Hodgkin's Lymphoma. The essentials: (§1)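 Bliss excess equals the observed combination effect minus the expected value EA + EB − EA·EB, where EA and EB are the effects of each agent alone. Combination Emax is the second-highest inhibition within the matrix. Inhibition was scaled from CellTiter-Glo 2.0 luminescence, with 0 set by vehicle wells and 1 by blank wells, after 72 hours of two-drug dosing of cells plated in 1536-well plates.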

Experiment [2] deals with U-698-M. Put plainly: combination Emax (second highest fraction inhibited in the dose matrix, 72 h); higher = more inhibition. As to conditions: B-Cell Non-Hodgkin's Lymphoma. Summed up: as §1
Setting [3] is: first compound max 10 µM, partner max 0.3 µM, 7x7.
The mark [4] stands for this setting: first compound max 10 µM, partner max 1 µM, 7x7.
[5] abbreviates: first compound max 10 µM, partner max 10 µM, 7x7.
The mark [6] stands for this setting: first compound max 10 µM, partner max 2 µM, 7x7.
Setting [7] is: first compound max 2 µM, partner max 1 µM, 7x7.
[8] abbreviates: first compound max 1 µM, partner max 10 µM, 7x7.
Where [9] appears, read: first compound max 0.001 µM, partner max 10 µM, 7x7.
Setting [10] is: first compound max 0.3 µM, partner max 1 µM, 7x7.

Molecules are shown by their SMILES.

As for `NC1(C(=O)N[C@@H](CCO)c2ccc(Cl)cc2)CCN(c2ncnc3[nH]ccc23)CC1` [Capivasertib] + CC(C)n1c(=O)n(C)c2cnc3cc(F)c(-c4ccc(OCCCN5CCCCC5)nc4)cc3c21 [AZD1390], in the experiment with U-698-M [1] (setting [3]), the Bliss excess turned out to be 0.0024. In the experiment with U-698-M [2] (setting [3]), the “combination Emax” value was determined as 0.507.

Regarding `NC1(C(=O)N[C@@H](CCO)c2ccc(Cl)cc2)CCN(c2ncnc3[nH]ccc23)CC1` [Capivasertib] + CCN(CCO)CCCOc1ccc2c(Nc3cc(CC(=O)Nc4cccc(F)c4)[nH]n3)ncnc2c1 [AZD2811], in the experiment on U-698-M [1] (setting [4]), the Bliss excess is -0.0021. Further, the “combination Emax” value in the experiment with U-698-M [2] (setting [4]) is 0.5.

Consider `NC1(C(=O)N[C@@H](CCO)c2ccc(Cl)cc2)CCN(c2ncnc3[nH]ccc23)CC1` [Capivasertib] + COc1nnc2ccc(N3CCC(c4ccc(OCCN5CCN(C)C(=O)[C@H]5C)cc4)CC3)nn12 [AZD5153], for which the Bliss excess with U-698-M [1] (setting [4]) was -0.0646. Moreover, the “combination Emax” value with U-698-M [2] (setting [4]) stood at 0.768.

Turning to `NC1(C(=O)N[C@@H](CCO)c2ccc(Cl)cc2)CCN(c2ncnc3[nH]ccc23)CC1` [Capivasertib] + C[C@@H]1COCCN1C2=NC(=NC(=C2)C3(CC3)[S@](=N)(=O)C)C4=C5C=CNC5=NC=C4 [AZD6738], in the experiment on U-698-M [1] (setting [5]), the Bliss excess was -0.0275. Besides, the “combination Emax” value in the experiment with U-698-M [2] (setting [5]) came to 0.909.

Consider `NC1(C(=O)N[C@@H](CCO)c2ccc(Cl)cc2)CCN(c2ncnc3[nH]ccc23)CC1` [Capivasertib] + Cn1cnc2c(F)c(Nc3ccc(Br)cc3Cl)c(C(=O)NOCCO)cc21 [Selumetinib], for which the Bliss excess with U-698-M [1] (setting [5]) is -0.0253. In addition, in the experiment with U-698-M [2] (setting [5]), the “combination Emax” value amounted to 0.45.

Turning to `C[C@@H](Oc1cc(-c2cnn(C3CCNCC3)c2)cnc1N)c1c(Cl)ccc(F)c1Cl` [Crizotinib] + CC1=C(C(=CC=C1)Cl)NC(=O)C2=CN=C(S2)NC3=CC(=NC(=N3)C)N4CCN(CC4)CCO [Dasatinib], the Bliss excess in the experiment with U-698-M [1] (setting [6]) is -0.0005. The “combination Emax” value in the experiment with U-698-M [2] (setting [6]) was found to be 0.861.

`C[C@@H](Oc1cc(-c2cnn(C3CCNCC3)c2)cnc1N)c1c(Cl)ccc(F)c1Cl` [Crizotinib] + Cn1cnc2c(F)c(Nc3ccc(Br)cc3Cl)c(C(=O)NOCCO)cc21 [Selumetinib]: in the experiment with U-698-M [1] (setting [5]), the Bliss excess is -0.0663. In the experiment with U-698-M [2] (setting [5]), the “combination Emax” value was found to be 0.752.

For `Cc1nc(Nc2ncc(C(=O)Nc3c(C)cccc3Cl)s2)cc(N2CCN(CCO)CC2)n1` [Dasatinib] + CC(=O)Nc1cccc(-n2c(=O)n(C3CC3)c(=O)c3c(Nc4ccc(I)cc4F)n(C)c(=O)c(C)c32)c1 [Trametinib], the Bliss excess in the experiment with U-698-M [1] (setting [7]) is -0.0131. Moreover, the “combination Emax” value with U-698-M [2] (setting [7]) was 0.432.

For the compound `COc1cccc2c1C(=O)c1c(O)c3c(c(O)c1C2=O)C[C@@](O)(C(=O)CO)C[C@@H]3O[C@H]1C[C@H](N)[C@H](O)[C@H](C)O1` [Doxorubicin] + Cc1cc2ncnn2cc1Nc1ncc2c(n1)n(C1CCOCC1)c(=O)n2C [AZD7648], the Bliss excess with U-698-M [1] (setting [8]) amounted to 0.084. Moreover, in the experiment with U-698-M [2] (setting [8]), the “combination Emax” value was determined as 0.909.

Take `COc1cc2ncnc(Nc3ccc(F)c(Cl)c3)c2cc1OCCCN1CCOCC1` [Gefitinib] + CC(C)n1c(=O)n(C)c2cnc3cc(F)c(-c4ccc(OCCCN5CCCCC5)nc4)cc3c21 [AZD1390]: in the experiment on U-698-M [1] (setting [3]), the Bliss excess is -0.0593. Also, the “combination Emax” value in the experiment with U-698-M [2] (setting [3]) was 0.354.

On to `CS(=O)(=O)CCNCc1ccc(-c2ccc3ncnc(Nc4ccc(OCc5cccc(F)c5)c(Cl)c4)c3c2)o1` [Lapatinib] + C[C@@H](Oc1cc(-c2cnn(C3CCNCC3)c2)cnc1N)c1c(Cl)ccc(F)c1Cl [Crizotinib], for which, in the experiment on U-698-M [1] (setting [5]), the Bliss excess is -0.0653. Moreover, the “combination Emax” value in the experiment on U-698-M [2] (setting [5]) is 0.934.

As for `CS(=O)(=O)CCNCc1ccc(-c2ccc3ncnc(Nc4ccc(OCc5cccc(F)c5)c(Cl)c4)c3c2)o1` [Lapatinib] + Cn1cnc2c(F)c(Nc3ccc(Br)cc3Cl)c(C(=O)NOCCO)cc21 [Selumetinib], the Bliss excess in the experiment on U-698-M [1] (setting [5]) was -0.0215. In the experiment on U-698-M [2] (setting [5]), the “combination Emax” value was found to be 0.585.

For the compound `CS(=O)(=O)CCNCc1ccc(-c2ccc3ncnc(Nc4ccc(OCc5cccc(F)c5)c(Cl)c4)c3c2)o1` [Lapatinib] + NC1(c2ccc(-c3nc4ccn5c(=O)[nH]nc5c4cc3-c3ccccc3)cc2)CCC1 [MK-2206], the Bliss excess with U-698-M [1] (setting [5]) was 0.0097. In the experiment on U-698-M [2] (setting [5]), the “combination Emax” value turned out to be 0.905.

For `O=C(c1cc(Cc2n[nH]c(=O)c3ccccc23)ccc1F)N1CCN(C(=O)C2CC2)CC1` [Olaparib] + CC1(C)CCC(CN2CCN(c3ccc(C(=O)NS(=O)(=O)c4ccc(NCC5CCOCC5)c([N+](=O)[O-])c4)c(Oc4cnc5[nH]ccc5c4)c3)CC2)=C(c2ccc(Cl)cc2)C1 [Venetoclax], the Bliss excess with U-698-M [1] (setting [4]) is -0.0064. For the same compound, the “combination Emax” value in the experiment on U-698-M [2] (setting [4]) is 0.192.

`O=C(c1cc(Cc2n[nH]c(=O)c3ccccc23)ccc1F)N1CCN(C(=O)C2CC2)CC1` [Olaparib] + CN(CC[C@H](CSC1=CC=CC=C1)NC2=C(C=C(C=C2)S(=O)(=O)NC(=O)C3=CC=C(C=C3)N4CCC(CC4)[C@H](C5=CC=CC=C5C6=CC=C(C=C6)Cl)O)S(=O)(=O)C(F)(F)F)CCO [AZD4320]: the Bliss excess in the experiment with U-698-M [1] (setting [4]) was -0.0494. The “combination Emax” value with U-698-M [2] (setting [4]) was 0.135.

Consider `O=C(c1cc(Cc2n[nH]c(=O)c3ccccc23)ccc1F)N1CCN(C(=O)C2CC2)CC1` [Olaparib] + COc1nnc2ccc(N3CCC(c4ccc(OCCN5CCN(C)C(=O)[C@H]5C)cc4)CC3)nn12 [AZD5153], for which the Bliss excess in the experiment with U-698-M [1] (setting [4]) was -0.0374. Moreover, the “combination Emax” value in the experiment with U-698-M [2] (setting [4]) came out at 0.578.

In the case of `O=C(c1cc(Cc2n[nH]c(=O)c3ccccc23)ccc1F)N1CCN(C(=O)C2CC2)CC1` [Olaparib] + Cc1c2c(nn1C)CSCc1cc(n(C)n1)CSc1cc(c3ccccc3c1)OCCCc1c(C(=O)O)n(C)c3c-2c(Cl)ccc13 [AZD5991], the Bliss excess in the experiment on U-698-M [1] (setting [4]) stood at 0.0244. Also, in the experiment on U-698-M [2] (setting [4]), the “combination Emax” value worked out at 0.987.

Turning to `CC(=O)c1c(C)c2cnc(Nc3ccc(N4CCNCC4)cn3)nc2n(C2CCCC2)c1=O` [Palbociclib] + CC1(C)CCC(CN2CCN(c3ccc(C(=O)NS(=O)(=O)c4ccc(NCC5CCOCC5)c([N+](=O)[O-])c4)c(Oc4cnc5[nH]ccc5c4)c3)CC2)=C(c2ccc(Cl)cc2)C1 [Venetoclax], the Bliss excess with U-698-M [1] (setting [4]) is -0.0676. For the same compound, the “combination Emax” value in the experiment with U-698-M [2] (setting [4]) is 0.548.

As to `CC(=O)c1c(C)c2cnc(Nc3ccc(N4CCNCC4)cn3)nc2n(C2CCCC2)c1=O` [Palbociclib] + Cc1c2c(nn1C)CSCc1cc(n(C)n1)CSc1cc(c3ccccc3c1)OCCCc1c(C(=O)O)n(C)c3c-2c(Cl)ccc13 [AZD5991], the Bliss excess in the experiment on U-698-M [1] (setting [4]) was -0.0228. Besides, the “combination Emax” value in the experiment on U-698-M [2] (setting [4]) turned out to be 0.98.

For `CC(=O)c1c(C)c2cnc(Nc3ccc(N4CCNCC4)cn3)nc2n(C2CCCC2)c1=O` [Palbociclib] + Cn1cnc2c(F)c(Nc3ccc(Br)cc3Cl)c(C(=O)NOCCO)cc21 [Selumetinib], in the experiment on U-698-M [1] (setting [5]), the Bliss excess is -0.0483. In addition, the “combination Emax” value in the experiment with U-698-M [2] (setting [5]) is 0.583.

Turning to `COc1cccc(OCCCN)c1-c1cc(Nc2cnc(C#N)cn2)n[nH]1` [Prexasertib] + C=CCn1c(=O)c2cnc(Nc3ccc(N4CCN(C)CC4)cc3)nc2n1-c1cccc(C(C)(C)O)n1 [AZD1775], in the experiment on U-698-M [1] (first compound max 1 µM, partner max 1 µM), the Bliss excess amounted to 0.0762. Moreover, the “combination Emax” value in the experiment on U-698-M [2] (first compound max 1 µM, partner max 1 µM, may be a limit of the assay) came out at 1.

Take `COc1cccc(OCCCN)c1-c1cc(Nc2cnc(C#N)cn2)n[nH]1` [Prexasertib] + CCc1c2c(nc3ccc(O)cc13)-c1cc3c(c(=O)n1C2)COC(=O)[C@]3(O)CC [SN-38]: the Bliss excess with U-698-M [1] (first compound max 1 µM, partner max 0.3 µM, 7x7) amounted to 0.0237. The “combination Emax” value in the experiment with U-698-M [2] (first compound max 1 µM, partner max 0.3 µM, 7x7, may be a limit of the assay) was 1.

For `COc1cccc(OCCCN)c1-c1cc(Nc2cnc(C#N)cn2)n[nH]1` [Prexasertib] + CN(C)CCCOc1ccc(-c2ccc3ncc4c(c3c2)n(C2CCOCC2)c(=O)n4C)cn1 [AZD0156], the Bliss excess in the experiment with U-698-M [1] (first compound max 1 µM, partner max 1 µM, 7x7) came out at 0.0361. In the experiment with U-698-M [2] (first compound max 1 µM, partner max 1 µM, 7x7, may be a limit of the assay), the “combination Emax” value turned out to be 1.

`COc1cccc(OCCCN)c1-c1cc(Nc2cnc(C#N)cn2)n[nH]1` [Prexasertib] + C[C@@H]1COCCN1C2=NC(=NC(=C2)C3(CC3)[S@](=N)(=O)C)C4=C5C=CNC5=NC=C4 [AZD6738]: the Bliss excess with U-698-M [1] (setting [8]) is -0.0348. In addition, the “combination Emax” value with U-698-M [2] (setting [8]) is 0.996.

Regarding `COc1cccc(OCCCN)c1-c1cc(Nc2cnc(C#N)cn2)n[nH]1` [Prexasertib] + Cc1cc2ncnn2cc1Nc1ncc2c(n1)n(C1CCOCC1)c(=O)n2C [AZD7648], in the experiment with U-698-M [1] (setting [8]), the Bliss excess is -0.0029. In the experiment on U-698-M [2] (setting [8]), the “combination Emax” value was 0.975.

As to `COc1cccc(OCCCN)c1-c1cc(Nc2cnc(C#N)cn2)n[nH]1` [Prexasertib] + O=C(c1cc(Cc2n[nH]c(=O)c3ccccc23)ccc1F)N1CCN(C(=O)C2CC2)CC1 [Olaparib], the Bliss excess with U-698-M [1] (setting [8]) is -0.0433. Besides, the “combination Emax” value in the experiment with U-698-M [2] (setting [8]) was found to be 0.953.

With `COc1cc2c(cc1OCCCCCOc1cc3c(cc1OC)C(=O)N1C=C(C)C[C@H]1C=N3)N=C[C@@H]1CC(C)=CN1C2=O` [SG3199] + O=C(c1cc(Cc2n[nH]c(=O)c3ccccc23)ccc1F)N1CCN(C(=O)C2CC2)CC1 [Olaparib], the Bliss excess with U-698-M [1] (setting [9]) is -0.0531. The “combination Emax” value in the experiment with U-698-M [2] (setting [9]) is 0.0822.

In the case of `CCc1c2c(nc3ccc(O)cc13)-c1cc3c(c(=O)n1C2)COC(=O)[C@]3(O)CC` [SN-38] + CN(C)CCCOc1ccc(-c2ccc3ncc4c(c3c2)n(C2CCOCC2)c(=O)n4C)cn1 [AZD0156], in the experiment with U-698-M [1] (setting [10]), the Bliss excess worked out at 0.0615. Further, the “combination Emax” value in the experiment on U-698-M [2] (setting [10]) amounted to 0.908.
